What follows are sequences tested on Acar3. Conditions: Table S1; top 94 PSCPL-scoring peptides; SPA, 10µM peptide, 125I β2m, folding over night at 18°C, dissociation measured up to 24 hours at 37°C.
Format: binding, great reed warbler Acrocephalus arundinaceus

First: YMWLGARYL [9-mer peptide]
Second: YWMGGTTYF [9-mer peptide]
The “Stability T½ of Acar3 in complex with the peptide” value of the first is 2-fold lower: 24 min for the first, 48 min for the second.

Same assay, conditions: Table S5; half-life estimated from dissociation in scintillation proximity assay; Acar3

First: YMWLGARYL [9-mer peptide]
Second: YWMGGTTYF [9-mer peptide]
The “Stability T½ (h), peptide - Acar3” value of the first is 2-fold lower: 0.4 h for the first, 0.8 h for the second.

These sequences were tested on Acar19. Conditions: Table S5, half-life estimated from dissociation in scintillation proximity assay.
Format: binding, great reed warbler Acrocephalus arundinaceus

AFHQLVQVI [9-mer peptide] and AYAGLFTPL [9-mer peptide] are within 1.5-fold of each other in “Stability T½ (h), peptide - Acar19” value: 0.3 h for the first, 0.4 h for the second.

Going from DAAKNQVAM [9-mer peptide] to DAAVVFPPV [9-mer peptide], the “Stability T½ (h), peptide - Acar19” value rises from 0.2 h to 10.0 h (50-fold).

First: DALLNEENL [9-mer peptide]
Second: DAMENPLSL [9-mer peptide]
The “Stability T½ (h), peptide - Acar19” value of the first is 10-fold higher: 2.0 h for the first, 0.2 h for the second.

Compared with DASFNASAI [9-mer peptide], DAVRNAAAI [9-mer peptide] is 3.3-fold lower in “Stability T½ (h), peptide - Acar19” value: 1.0 h for the first, 0.3 h for the second.

Compared with DFGYATMAK [9-mer peptide], DFIANTETI [9-mer peptide] is 16-fold higher in “Stability T½ (h), peptide - Acar19” value: 0.3 h for the first, 4.7 h for the second.

Going from DFISMYFPW [9-mer peptide] to DFNEAIQAY [9-mer peptide], the “Stability T½ (h), peptide - Acar19” value falls from 0.5 h to 0.3 h (1.7-fold).

Going from DHIPIINTL [9-mer peptide] to DIKLIDIAL [9-mer peptide], the “Stability T½ (h), peptide - Acar19” value rises from 0.3 h to 3.7 h (12-fold).

Going from DIQKLVGKL [9-mer peptide] to DISPTNIPL [9-mer peptide], the “Stability T½ (h), peptide - Acar19” value falls from 0.4 h to 0.2 h (2-fold).

First: DMNLEQWSV [9-mer peptide]
Second: DMSTNAEYF [9-mer peptide]
The “Stability T½ (h), peptide - Acar19” value of the first is 2-fold higher: 0.4 h for the first, 0.2 h for the second.

First: DMWEHAFYL [9-mer peptide]
Second: DPNPQEMVL [9-mer peptide]
The “Stability T½ (h), peptide - Acar19” value of the first is 3-fold higher: 0.3 h for the first, 0.1 h for the second.

First: DPNPQEVVL [9-mer peptide]
Second: DPSGAYFAW [9-mer peptide]
The “Stability T½ (h), peptide - Acar19” value of the first is 4-fold higher: 0.4 h for the first, 0.1 h for the second.

Compared with DQIRNMSVI [9-mer peptide], DSFPNSVTI [9-mer peptide] is 4.7-fold higher in “Stability T½ (h), peptide - Acar19” value: 0.3 h for the first, 1.4 h for the second.

First: DSIMLTATF [9-mer peptide]
Second: DTAKAFAYL [9-mer peptide]
The “Stability T½ (h), peptide - Acar19” value of the first is 3-fold higher: 1.5 h for the first, 0.5 h for the second.

Compared with DTDPLPVVF [9-mer peptide], DTETLTTMF [9-mer peptide] is 2-fold lower in “Stability T½ (h), peptide - Acar19” value: 0.2 h for the first, 0.1 h for the second.

First: DTFGVIDTM [9-mer peptide]
Second: DTRAIDQFF [9-mer peptide]
The “Stability T½ (h), peptide - Acar19” value of the first is 11-fold lower: 0.2 h for the first, 2.3 h for the second.

Going from DVAKIEAPL [9-mer peptide] to DVSPILEAY [9-mer peptide], the “Stability T½ (h), peptide - Acar19” value falls from 11.4 h to 0.1 h (110-fold).

Compared with DVVPMVTQM [9-mer peptide], DWMERIEDF [9-mer peptide] is 2.3-fold higher in “Stability T½ (h), peptide - Acar19” value: 0.6 h for the first, 1.4 h for the second.

First: DWSGYSGSF [9-mer peptide]
Second: DYAMHGTVF [9-mer peptide]
The “Stability T½ (h), peptide - Acar19” value of the first is 8-fold lower: 0.3 h for the first, 2.4 h for the second.

Compared with DYLQCVLQI [9-mer peptide], DYLQYVLQI [9-mer peptide] is 13-fold lower in “Stability T½ (h), peptide - Acar19” value: 6.6 h for the first, 0.5 h for the second.

EAAGIAACL [9-mer peptide] and EAAKNVECI [9-mer peptide] are within 1.5-fold of each other in “Stability T½ (h), peptide - Acar19” value: 0.6 h for the first, 0.4 h for the second.

Compared with EDFEIFYNL [9-mer peptide], EFKQILTDF [9-mer peptide] is 9-fold higher in “Stability T½ (h), peptide - Acar19” value: 0.4 h for the first, 3.6 h for the second.

ENALLVALF [9-mer peptide] and ETFRLLRSF [9-mer peptide] are the same in “Stability T½ (h), peptide - Acar19” value: 0.1 h for the first, 0.1 h for the second.

Compared with EYAPFARLL [9-mer peptide], EYARQVQMI [9-mer peptide] is 2.8-fold lower in “Stability T½ (h), peptide - Acar19” value: 1.1 h for the first, 0.4 h for the second.

Compared with FFSPVIASL [9-mer peptide], FSIMIYFTF [9-mer peptide] is 4.5-fold lower in “Stability T½ (h), peptide - Acar19” value: 0.9 h for the first, 0.2 h for the second.

For FSPRLCRPF [9-mer peptide], the “Stability T½ (h), peptide - Acar19” value was 0.4 h.
